Assay results reported in the NIST ThermoML archive (doi:10.1016/j.fluid.2013.09.029).

Conditions: Liquid; for mass density: 298.15 K, 101.33 kPa, Vibrating tube method; for vapor or sublimation pressure: Closed cell (Static) method

CCCCCO [pentan-1-ol]
Conditions | mass density [kg/m3] | vapor or sublimation pressure [kPa]
– | 811.04 | –
333.1 K | – | 3.1
344.8 K | – | 6
354.4 K | – | 10
362.4 K | – | 14.8
371.2 K | – | 21.9
381.6 K | – | 34.1
391.5 K | – | 50.2
401.7 K | – | 73.1
411.4 K | – | 102.1
422.4 K | – | 145.2

CC(C)(C)O [2-methylpropan-2-ol]
Conditions | mass density [kg/m3] | vapor or sublimation pressure [kPa]
– | 781.04 | –
330.9 K | – | 34.9
331.1 K | – | 35.3
340.6 K | – | 54
350.6 K | – | 82.6
360.1 K | – | 121.2
369.5 K | – | 171.4
378.5 K | – | 232.1
387.7 K | – | 310.6
396.7 K | – | 406.4

CCC(C)O (configuration not stated) [butan-2-ol]
Conditions | mass density [kg/m3] | vapor or sublimation pressure [kPa]
– | 802.47 | –
332.9 K | – | 18
342.9 K | – | 29.2
352.5 K | – | 45
361.3 K | – | 65
371.1 K | – | 96
381.1 K | – | 137.6
391.9 K | – | 197.5
401.4 K | – | 266.1
412 K | – | 361.8
421.6 K | – | 471.4
